Experimental data reported in PubChem BioAssay AID743352 (Broad Institute, 2014).
The source made the active and inactive calls. No rule for the calls is given here.

Test system: M. tuberculosis BioA-TetON underexpression strain, growth inhibition
Assay: antitubercular growth inhibition, bioa underexpression strain, cell based, dry powder, single point (AID 743352)

Structure (SMILES)	IC90
COc1ccccc1NC(=O)N1CC[C@@H]2[C@@H](CO)N(C)c3ccc(-c4ccc(F)cc4)cc3[C@@H]21	> 50 µM (inactive)
CN1c2ccc(-c3ccc(F)cc3)cc2[C@H]2[C@H](CCN2C(=O)Cc2ccccn2)[C@H]1CO	> 50 µM (inactive)
CC(=O)c1ccc(N2CCN(C(=O)c3ccc4c(c3)OCO4)CC2)cc1	22.2 µM
CN1c2ccc(-c3cccc(F)c3)cc2[C@@H]2[C@@H](CCN2C(=O)c2ccc3c(c2)OCO3)[C@@H]1CO	> 50 µM (inactive)
CN1c2ccc(-c3ccc(F)cc3)cc2[C@H]2[C@H](CCN2C(=O)Nc2ccc(F)cc2)[C@H]1CO	> 50 µM (inactive)
CC(=O)c1ccc(N2CC3(CN(C(=O)c4ccc5c(c4)OCO5)C3)C2)cc1	> 50 µM (inactive)
CNC(=O)c1ccc(N2CCN(C(=O)c3ccc4c(c3)OCO4)CC2)cc1	> 50 µM (inactive)
CC(C)NC(=O)N1CC[C@@H]2[C@@H](CO)N(C)c3ccc(-c4cccc(F)c4)cc3[C@@H]21	> 50 µM (inactive)
CC(=O)c1ccc(N2CCN(C(=O)c3ccccc3F)CC2)cc1	> 50 µM (inactive)
CN1c2ccc(-c3cccc(F)c3)cc2[C@H]2[C@H](CCN2C(=O)Nc2ccccc2F)[C@H]1CO	> 50 µM (inactive)
CN1c2ccc(-c3cccc(F)c3)cc2[C@H]2[C@H](CCN2C(=O)c2ccc3c(c2)OCO3)[C@@H]1CO	> 50 µM (inactive)
CC(=O)c1ccc(N2CCN(C(=O)c3ccc4c(c3)OCO4)[C@H](C)C2)cc1	17.3 µM
CN1c2ccc(-c3cccc(F)c3)cc2[C@H]2[C@H](CCN2C(=O)Cc2ccccc2)[C@H]1CO	> 50 µM (inactive)
CC(C)NC(=O)N1CC[C@@H]2[C@@H](CO)N(C)c3ccc(-c4ccc(F)cc4)cc3[C@@H]21	> 50 µM (inactive)
CN1c2ccc(-c3cccc(F)c3)cc2[C@@H]2[C@@H](CCN2C(=O)c2ccc3c(c2)OCO3)[C@H]1CO	> 50 µM (inactive)
CNS(=O)(=O)c1ccc(N2CCN(C(=O)c3ccc4c(c3)OCO4)CC2)cc1	> 50 µM (inactive)
COc1ccc(NC(=O)N2CC[C@@H]3[C@@H](CO)N(C)c4ccc(-c5cccc(F)c5)cc4[C@@H]32)cc1	> 50 µM (inactive)

Structure (SMILES)	IC90
CN1c2ccc(-c3cccc(F)c3)cc2[C@H]2[C@H](CCN2C(=O)CCCCCCN)[C@H]1CO	> 50 µM (inactive)
COCC(=O)N1CC[C@@H]2[C@@H](CO)N(C)c3ccc(-c4cccc(F)c4)cc3[C@@H]21	> 50 µM (inactive)
COC(=O)CCCCCCC(=O)N1CC[C@@H]2[C@@H](CO)N(C)c3ccc(-c4cccc(F)c4)cc3[C@@H]21	> 50 µM (inactive)
COc1cccc(NC(=O)N2CC[C@@H]3[C@@H](CO)N(C)c4ccc(-c5cccc(F)c5)cc4[C@@H]32)c1	> 50 µM (inactive)
CC(=O)c1ccc(NCCNC(=O)c2ccc3c(c2)OCO3)cc1	> 50 µM (inactive)
CCC(=O)N1CC[C@@H]2[C@@H](CO)N(C)c3ccc(-c4ccc(F)cc4)cc3[C@@H]21	> 50 µM (inactive)
CC(=O)c1ccc(N2CCN(C(=O)c3ccccc3Cl)CC2)cc1	> 50 µM (inactive)
CN1c2ccc(-c3ccc(F)cc3)cc2[C@H]2[C@H](CCN2C(=O)Cc2cccnc2)[C@H]1CO	> 50 µM (inactive)
CN1c2ccc(-c3cccc(F)c3)cc2[C@H]2[C@H](CCN2C(=O)Cc2cccnc2)[C@H]1CO	> 50 µM (inactive)
CN(C)C(=O)c1ccc(N2CCN(C(=O)c3ccc4c(c3)OCO4)CC2)cc1	> 50 µM (inactive)
CCCNC(=O)N1CC[C@@H]2[C@@H](CO)N(C)c3ccc(-c4ccc(F)cc4)cc3[C@@H]21	> 50 µM (inactive)
COc1ccc(NC(=O)N2CC[C@@H]3[C@@H](CO)N(C)c4ccc(-c5ccc(F)cc5)cc4[C@@H]32)cc1	> 50 µM (inactive)
COc1ccccc1NC(=O)N1CC[C@@H]2[C@@H](CO)N(C)c3ccc(-c4cccc(F)c4)cc3[C@@H]21	> 50 µM (inactive)
CN1c2ccc(-c3cccc(F)c3)cc2[C@H]2[C@H](CCN2C(=O)CCCCCCC(=O)O)[C@H]1CO	> 50 µM (inactive)
CCCCCCCC(=O)N1CC[C@@H]2[C@@H](CO)N(C)c3ccc(-c4cccc(F)c4)cc3[C@@H]21	> 50 µM (inactive)
COc1ccccc1C(=O)N1CCN(c2ccc(C(C)=O)cc2)CC1	> 50 µM (inactive)
CN1c2ccc(-c3ccc(F)cc3)cc2[C@H]2[C@H](CCN2C(=O)Nc2cc(F)ccc2F)[C@H]1CO	> 50 µM (inactive)
